Data published in US20130212744A1, “METHOD OF REDUCING INSECT-VECTORED VIRAL INFECTIONS” (priority 2010, published 2013).
Read-outs that look alike come from different tables or passages of the source.

What was measured:
Format in all cases: in vivo
[1] = system: whitefly Bemisia tabaci adults; test: Foliar use field trial on tomato, efficacy on whitefly adults; details: Bemisia tabaci, foliar
Experimental: (§1) Two studies were carried out in Elhasanya, Egypt in 2009 on tomato plants of the variety Fayrouz with the main goal to measure efficacy on the whitefly Bemisia tabaci. The plot size was 4.8 m^2 and 6 replicates were used in the trial. Products were applied 3 times on young tomato plants at BBCH stages 14, 17 and 51 at spray intervals between 12 and 19 days. The spray volume was at the first application 350 l/ha and later 500 l/ha. The evaluation of this study was done counting the adult whiteflies (Bemisia tabaci) as well as the nymphs and the eggs in each plot. In addition to the direct whitefly effect, visual symptoms of the virus, mainly TYLCV (tomato yellow leaf curl virus) were evaluated also.
(§2) ASM=Acibenzolar-S-methyl. WG 50=Actigard® 50WG, a water-dispersible granule with the active ingredient ASM CYNT=Cyantraniliprole. WG 40=Cyazypyr®, a water dispersable granule with the active ingredient CYNT. Results on whitefly adults. Trial 1

[2] = system: whitefly Bemisia tabaci nymphs; test: Foliar use field trial on tomato, efficacy on whitefly nymphs; details: Bemisia tabaci, foliar
Experimental: as §1, §2

[3] = system: TYLCV (tomato yellow leaf curl virus); test: Foliar use field trial on tomato, infected leaf area by TYLC virus
Experimental: as §1, §2
Evaluation of percentage of infected leaf area by TYLC virus (average of 45 plants evaluated per treatment) Trial 1

[4] = system: whitefly Bemisia tabaci nymphs; test: Soil use (drench) field trial on tomato, efficacy on whitefly nymphs; details: for Emax at 100 g/ha: 100 g ai/ha; for Emax at 150 g/ha: 150 g ai/ha
Experimental: Two soil applied studies were carried out in Elhasanya, Egypt in 2009 on tomato plants with the main goal to measure efficacy on the whitefly Bemisia tabaci. The plot size was 4.8 m^2 and 6 replicates were used in the trial. […] The spray volume was at the first application 350 l/ha. The evaluation of this study was done counting the adult whiteflies (Bemisia tabaci) as well as the nymphs and the eggs in each plot. In addition to the direct whitefly effect, visual symptoms of the virus, mainly TYLCV (tomato yellow leaf curl virus) were evaluated also.

## CNC(=O)c1cc(C#N)cc(C)c1NC(=O)c1cc(Br)nn1-c1ncccc1Cl [CYNT, 3-bromo-1-(3-chloro-2-pyridyl)-4′-cyano-2′-methyl-6′-(methylcarbamoyl)pyrazole-5-carboxanilide]
[1]; 75 g ai/hl, 5DAA1, Trial 1, read-out: % Efficacy on Adults
  Emax: 82%
[1]; 75 g ai/hl, 5DAA1, Trial 2, read-out: % Efficacy on Adults
  Emax: 82%
[1]; 75 g ai/hl, 5DAA2, Trial 1, read-out: % Efficacy on Adults
  Emax: 69%
[1]; 75 g ai/hl, 5DAA2, Trial 2, read-out: % Efficacy on Adults
  Emax: 69%
[1]; 75 g ai/hl, 5DAA3, Trial 1, read-out: % Efficacy on Adults
  Emax: 83%
[1]; 75 g ai/hl, 5DAA3, Trial 2, read-out: % Efficacy on Adults
  Emax: 83%
[1]; 75 g ai/hl, 10DAA1, Trial 1, read-out: % Efficacy on Adults
  Emax: 49%
[1]; 75 g ai/hl, 10DAA1, Trial 2, read-out: % Efficacy on Adults
  Emax: 49%
[1]; 75 g ai/hl, 10DAA2, Trial 1, read-out: % Efficacy on Adults
  Emax: 67%
[1]; 75 g ai/hl, 10DAA2, Trial 2, read-out: % Efficacy on Adults
  Emax: 67%
[1]; 75 g ai/hl, 10DAA3, Trial 1, read-out: % Efficacy on Adults
  Emax: 79%
[1]; 75 g ai/hl, 10DAA3, Trial 2, read-out: % Efficacy on Adults
  Emax: 79%
[1]; 75 g ai/hl, 15DAA3, Trial 1, read-out: % Efficacy on Adults
  Emax: 71%
[1]; 75 g ai/hl, 15DAA3, Trial 2, read-out: % Efficacy on Adults
  Emax: 71%
[1]; 75 g ai/hl, 20DAA3, Trial 1, read-out: % Efficacy on Adults
  Emax: 62%
[1]; 75 g ai/hl, 20DAA3, Trial 2, read-out: % Efficacy on Adults
  Emax: 62%
[1]; 75 g ai/hl, Avg, Trial 1, read-out: % Efficacy on Adults Avg % C
  Emax: 70%
[1]; 100 g ai/hl, 5DAA1, Trial 1, read-out: % Efficacy on Adults
  Emax: 89%
[1]; 100 g ai/hl, 5DAA1, Trial 2, read-out: % Efficacy on Adults
  Emax: 89%
[1]; 100 g ai/hl, 5DAA2, Trial 1, read-out: % Efficacy on Adults
  Emax: 89%
[1]; 100 g ai/hl, 5DAA2, Trial 2, read-out: % Efficacy on Adults
  Emax: 89%
[1]; 100 g ai/hl, 5DAA3, Trial 1, read-out: % Efficacy on Adults
  Emax: 90%
[1]; 100 g ai/hl, 5DAA3, Trial 2, read-out: % Efficacy on Adults
  Emax: 90%
[1]; 100 g ai/hl, 10DAA1, Trial 1, read-out: % Efficacy on Adults
  Emax: 74%
[1]; 100 g ai/hl, 10DAA1, Trial 2, read-out: % Efficacy on Adults
  Emax: 74%
[1]; 100 g ai/hl, 10DAA2, Trial 1, read-out: % Efficacy on Adults
  Emax: 86%
[1]; 100 g ai/hl, 10DAA2, Trial 2, read-out: % Efficacy on Adults
  Emax: 86%
[1]; 100 g ai/hl, 10DAA3, Trial 1, read-out: % Efficacy on Adults
  Emax: 86%
[1]; 100 g ai/hl, 10DAA3, Trial 2, read-out: % Efficacy on Adults
  Emax: 86%
[1]; 100 g ai/hl, 15DAA3, Trial 1, read-out: % Efficacy on Adults
  Emax: 80%
[1]; 100 g ai/hl, 15DAA3, Trial 2, read-out: % Efficacy on Adults
  Emax: 80%
[1]; 100 g ai/hl, 20DAA3, Trial 1, read-out: % Efficacy on Adults
  Emax: 68%
[1]; 100 g ai/hl, 20DAA3, Trial 2, read-out: % Efficacy on Adults
  Emax: 68%
[1]; 100 g ai/hl, Avg, Trial 1, read-out: % Efficacy on Adults Avg % C
  Emax: 83%
[2]; 75 g ai/hl, 5DAA2, Trial 1, read-out: % Efficacy on Nymphs
  Emax: 27%
[2]; 75 g ai/hl, 5DAA2, Trial 2, read-out: % Efficacy on Nymphs
  Emax: 27%
[2]; 75 g ai/hl, 5DAA3, Trial 1, read-out: % Efficacy on Nymphs
  Emax: 72%
[2]; 75 g ai/hl, 5DAA3, Trial 2, read-out: % Efficacy on Nymphs
  Emax: 72%
[2]; 75 g ai/hl, 10DAA2, Trial 1, read-out: % Efficacy on Nymphs
  Emax: 48%
[2]; 75 g ai/hl, 10DAA2, Trial 2, read-out: % Efficacy on Nymphs
  Emax: 48%
[2]; 75 g ai/hl, 10DAA3, Trial 1, read-out: % Efficacy on Nymphs
  Emax: 65%
[2]; 75 g ai/hl, 10DAA3, Trial 2, read-out: % Efficacy on Nymphs
  Emax: 65%
[2]; 75 g ai/hl, 15DAA3, Trial 1, read-out: % Efficacy on Nymphs
  Emax: 60%
[2]; 75 g ai/hl, 15DAA3, Trial 2, read-out: % Efficacy on Nymphs
  Emax: 60%
[2]; 75 g ai/hl, 20DAA3, Trial 1, read-out: % Efficacy on Nymphs
  Emax: 48%
[2]; 75 g ai/hl, 20DAA3, Trial 2, read-out: % Efficacy on Nymphs
  Emax: 48%
[2]; 75 g ai/hl, Avg, Trial 1, read-out: % Efficacy on Nymphs Avg % C
  Emax: 53%
[2]; 100 g ai/hl, 5DAA2, Trial 1, read-out: % Efficacy on Nymphs
  Emax: 73%
[2]; 100 g ai/hl, 5DAA2, Trial 2, read-out: % Efficacy on Nymphs
  Emax: 73%
[2]; 100 g ai/hl, 5DAA3, Trial 1, read-out: % Efficacy on Nymphs
  Emax: 84%
[2]; 100 g ai/hl, 5DAA3, Trial 2, read-out: % Efficacy on Nymphs
  Emax: 84%
[2]; 100 g ai/hl, 10DAA2, Trial 1, read-out: % Efficacy on Nymphs
  Emax: 73%
[2]; 100 g ai/hl, 10DAA2, Trial 2, read-out: % Efficacy on Nymphs
  Emax: 73%
[2]; 100 g ai/hl, 10DAA3, Trial 1, read-out: % Efficacy on Nymphs
  Emax: 78%
[2]; 100 g ai/hl, 10DAA3, Trial 2, read-out: % Efficacy on Nymphs
  Emax: 78%
[2]; 100 g ai/hl, 15DAA3, Trial 1, read-out: % Efficacy on Nymphs
  Emax: 68%
[2]; 100 g ai/hl, 15DAA3, Trial 2, read-out: % Efficacy on Nymphs
  Emax: 68%
[2]; 100 g ai/hl, 20DAA3, Trial 1, read-out: % Efficacy on Nymphs
  Emax: 56%
[2]; 100 g ai/hl, 20DAA3, Trial 2, read-out: % Efficacy on Nymphs
  Emax: 56%
[2]; 100 g ai/hl, Avg, Trial 1, read-out: % Efficacy on Nymphs Avg % C
  Emax: 72%
[3]; 75 g ai/hl, 5DAA2, Trial 1
  % Infected Surface area with virus / plant: 0.0%
[3]; 75 g ai/hl, 5DAA2, Trial 2
  % Infected Surface area with virus / plant: 0.0%
[3]; 75 g ai/hl, 5DAA3, Trial 1
  % Infected Surface area with virus / plant: 3.0%
[3]; 75 g ai/hl, 5DAA3, Trial 2
  % Infected Surface area with virus / plant: 3.0%
[3]; 75 g ai/hl, 10DAA3, Trial 1
  % Infected Surface area with virus / plant: 5.1%
[3]; 75 g ai/hl, 10DAA3, Trial 2
  % Infected Surface area with virus / plant: 5.1%
[3]; 75 g ai/hl, 15DAA3, Trial 1
  % Infected Surface area with virus / plant: 7.1%
[3]; 75 g ai/hl, 15DAA3, Trial 2
  % Infected Surface area with virus / plant: 7.1%
[3]; 75 g ai/hl, 20DAA3, Trial 1
  % Infected Surface area with virus / plant: 9.8%
[3]; 75 g ai/hl, 20DAA3, Trial 2
  % Infected Surface area with virus / plant: 9.8%
[3]; 75 g ai/hl, 24DAA3, Trial 1
  % Infected Surface area with virus / plant: 10.3%
[3]; 75 g ai/hl, 24DAA3, Trial 2
  % Infected Surface area with virus / plant: 10.3%
[3]; 100 g ai/hl, 5DAA2, Trial 1
  % Infected Surface area with virus / plant: 0.8%
[3]; 100 g ai/hl, 5DAA2, Trial 2
  % Infected Surface area with virus / plant: 0.8%
[3]; 100 g ai/hl, 5DAA3, Trial 1
  % Infected Surface area with virus / plant: 1.9%
[3]; 100 g ai/hl, 5DAA3, Trial 2
  % Infected Surface area with virus / plant: 1.9%
[3]; 100 g ai/hl, 10DAA3, Trial 1
  % Infected Surface area with virus / plant: 3.1%
[3]; 100 g ai/hl, 10DAA3, Trial 2
  % Infected Surface area with virus / plant: 3.1%
[3]; 100 g ai/hl, 15DAA3, Trial 1
  % Infected Surface area with virus / plant: 3.9%
[3]; 100 g ai/hl, 15DAA3, Trial 2
  % Infected Surface area with virus / plant: 3.9%
[3]; 100 g ai/hl, 20DAA3, Trial 1
  % Infected Surface area with virus / plant: 4.5%
[3]; 100 g ai/hl, 20DAA3, Trial 2
  % Infected Surface area with virus / plant: 4.5%
[3]; 100 g ai/hl, 24DAA3, Trial 1
  % Infected Surface area with virus / plant: 5.3%
[3]; 100 g ai/hl, 24DAA3, Trial 2
  % Infected Surface area with virus / plant: 5.3%
[4]; 25DAA1, Trial 2
  Emax at 100 g/ha: 60%
  Emax at 150 g/ha: 78%
[4]; 30DAA1, Trial 2
  Emax at 100 g/ha: 34%
  Emax at 150 g/ha: 79%
[4]; 35DAA1, Trial 2
  Emax at 100 g/ha: 63%
  Emax at 150 g/ha: 77%
[4]; 40DAA2, Trial 2
  Emax at 100 g/ha: 52%
  Emax at 150 g/ha: 61%
[4]; 240 h, 10DAA, Trial 1
  Emax at 100 g/ha: 67%
  Emax at 150 g/ha: 69%
[4]; 360 h, 15DAA, Trial 1
  Emax at 100 g/ha: 65%
  Emax at 150 g/ha: 84%
[4]; 480 h, 20DAA, Trial 1
  Emax at 100 g/ha: 59%
  Emax at 150 g/ha: 84%
[4]; 600 h, 25DAA, Trial 1
  Emax at 100 g/ha: 39%
  Emax at 150 g/ha: 77%
[4]; 720 h, 30DAA, Trial 1
  Emax at 100 g/ha: 28%
  Emax at 150 g/ha: 74%
[4]; 840 h, 35DAA, Trial 1
  Emax at 100 g/ha: 24%
  Emax at 150 g/ha: 70%
[4]; 960 h, 40DAA, Trial 1
  Emax at 100 g/ha: 13%
  Emax at 150 g/ha: 64%
